Measurements published in patent publication EP4678638A1, “NEW E3 UBIQUITIN LIGASE LIGAND, PROTEIN DEGRADATION AGENT AND USE THEREOF” (priority 2023, dated 2024).
Like-named read-outs stand apart in the source and are kept apart here.

Experiments:
[1] = test system: Kasumi-1; assay: CCK-8 proliferation, Kasumi-1; assay type: cell-based, Human; details: read-out: Inhibitory activity (IC50) on tumor cell proliferation, Kasumi-1
Method: (§1) The tumor cells used herein were cultured in a cell culture medium listed in table A1 at 37°C in an incubator with 5% CO2. Prior to experimentation, all cell lines used were correctly identified by STR profiling, and tested negative for mycoplasma contamination using a mycoplasma detection kit through routine screenings. Table A1. Tumor cells and cell culture medium used in the present disclosure
(§2) IC50 values of the compounds of the present disclosure (including the compounds in Table 1, and compounds of examples) were measured using the Meilun Cell Counting Kit-8 kit from Dalian Meilun Biotech Co., Ltd. Assay details are as follows: tumor cells were seeded in a 96-well plate at a density listed in Table A2. After 24h, 100 µL of the inoculated cells were treated with 0.5µL of the compounds of the present disclosure (including the compounds in Tables 1 and 2, and compounds of examples) at 10 different successively decreasing concentrations (starting at the highest concentration of 10µM; 5-fold serial dilutions). After the cells were treated with the compounds of the present disclosure for a period of time, the cell viability detection reagent was added to the culture medium for cell viability assessment according to the instructions provided with the CCK-8 kit. […] The growth inhibition of the compounds of the present disclosure on cells was plotted by Prism Graphpad software, and the IC50 values of the compounds of the present disclosure were calculated therefrom. […] Seeding protocol and treatment time for tumor cells

[2] = test system: MV-4-11; assay: CCK-8 proliferation, MV-4-11; assay type: cell-based, Human; details: CCK-8, 72 or 96 hours, read-out: Inhibitory activity (IC50) on tumor cell proliferation, MV-4-11
Outline: (§3)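 Tumor cells were cultured at 37°C with 5% CO2, seeded, and after 24h treated with compounds at 10 concentrations starting at 10µM (5-fold serial dilutions).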

[3] = test system: CCRF-CEM; assay: CCK-8 proliferation, CCRF-CEM; assay type: cell-based, Human; details: CCK-8, 96 hours, read-out: Inhibitory activity (IC50) on tumor cell proliferation, CCRF-CEM
Outline: as §3

[4] = biological target: T1, CDK6 (Homo sapiens, UniProt Q00534); assay: Western blot degradation of CDK6 (MDA-MB-231 Cell); assay type: cell-based; details: Table D3
T1 construct: evaluate the effects of the compounds of the present disclosure on the expression of target proteins in cells; endogenous in cells; host or cells: MDA-MB-231
Outline: (§4)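 After compound exposure, cells were harvested and lysates run on SDS-PAGE, transferred to nitrocellulose and probed with antibodies. Remaining target (%) was computed from band grayscale relative to an internal control protein and normalised; degradation (%) was 100% minus that.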

[5] = biological target: T2, CDK4 (Homo sapiens, UniProt P11802); assay: Western blot degradation of CDK4 (MDA-MB-231 Cell); assay type: cell-based; details: Table D3
T2 construct: evaluate the effects of the compounds of the present disclosure on the expression of target proteins in cells; endogenous in cells; host or cells: MDA-MB-231
Outline: as §4

[6] = test system: MCF7; assay: CCK-8 proliferation, MCF7 (MCF-7); assay type: cell-based; details: Homo sapiens, MCF7, CCK-8
Outline: as §3

[7] = biological target: T3, WEE1 (Homo sapiens, UniProt P30291+Q96SW2); assay: Western blot degradation of WEE1 (hPBMC); assay type: cell-based; details: Table D16
T3 construct: evaluate the effects of the compounds of the present disclosure on the expression of target proteins in cells; endogenous in cells; host or cells: hPBMC
Outline: as §4

[8] = biological target: T4, CK1a (Homo sapiens, UniProt P48729+Q96SW2); assay: Western blot degradation of CK1a (hPBMC); assay type: cell-based; details: Table D16
T4 construct: evaluate the effects of the compounds of the present disclosure on the expression of target proteins in cells; endogenous in cells; host or cells: hPBMC
Outline: as §4

[9] = biological target: T5, IKZF1 (Homo sapiens, UniProt Q13422+Q96SW2); assay: Western blot degradation of IKZF1 (hPBMC); assay type: cell-based; details: Table D16
T5 construct: evaluate the effects of the compounds of the present disclosure on the expression of target proteins in cells; endogenous in cells; host or cells: hPBMC
Outline: as §4

[10] = test system: MDA-MB-231; assay: CCK-8 proliferation, MDA-MB-231; assay type: cell-based; details: Homo sapiens, MDA-MB-231; CCK-8; 96 hours; read-out: Inhibitory activity (IC50) on tumor cell proliferation, MDA-MB-231
Method: as §1, §2

[11] = biological target: T6, IKZF2 (Homo sapiens, UniProt Q96SW2+Q9UKS7); assay: Western blot degradation of IKZF2 (hPBMC); assay type: cell-based; details: Table D16
T6 construct: evaluate the effects of the compounds of the present disclosure on the expression of target proteins in cells; endogenous in cells; host or cells: hPBMC
Outline: as §4

[12] = biological target: T7, GSPT1 (Homo sapiens, UniProt P15170+Q96SW2); assay: Western blot degradation of GSPT1 (hPBMC); assay type: cell-based; details: Table D16
T7 construct: evaluate the effects of the compounds of the present disclosure on the expression of target proteins in cells; endogenous in cells; host or cells: hPBMC
Outline: as §4

[13] = biological target: T8, IKZF3 (Homo sapiens, UniProt Q96SW2+Q9UKT9); assay: Western blot degradation of IKZF3 (hPBMC); assay type: cell-based; details: Table D16
T8 construct: evaluate the effects of the compounds of the present disclosure on the expression of target proteins in cells; endogenous in cells; host or cells: hPBMC
Outline: as §4

[14] = Homo sapiens, Kasumi 1, 72 hours
[15] = read-out: Inhibitory activity (IC50) on tumor cell proliferation, MCF-7

T3 sequence (P30291 whole entry): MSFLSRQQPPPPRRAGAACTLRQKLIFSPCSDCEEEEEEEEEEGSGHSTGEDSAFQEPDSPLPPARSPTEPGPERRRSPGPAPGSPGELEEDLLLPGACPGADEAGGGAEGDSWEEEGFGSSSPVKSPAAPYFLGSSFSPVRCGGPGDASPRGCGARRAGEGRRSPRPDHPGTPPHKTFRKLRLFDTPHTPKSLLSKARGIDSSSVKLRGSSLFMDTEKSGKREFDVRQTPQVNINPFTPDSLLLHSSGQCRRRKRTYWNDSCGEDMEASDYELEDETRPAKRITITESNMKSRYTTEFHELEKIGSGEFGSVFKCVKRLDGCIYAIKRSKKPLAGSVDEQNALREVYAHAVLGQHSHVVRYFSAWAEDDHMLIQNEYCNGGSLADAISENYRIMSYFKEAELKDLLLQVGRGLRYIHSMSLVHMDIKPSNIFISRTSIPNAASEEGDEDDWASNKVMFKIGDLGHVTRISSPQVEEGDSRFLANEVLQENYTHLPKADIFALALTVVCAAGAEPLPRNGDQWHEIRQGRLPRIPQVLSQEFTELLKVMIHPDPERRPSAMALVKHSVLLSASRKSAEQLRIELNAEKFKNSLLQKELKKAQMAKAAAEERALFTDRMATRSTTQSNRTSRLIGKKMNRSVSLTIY
T3 sequence (Q96SW2 whole entry): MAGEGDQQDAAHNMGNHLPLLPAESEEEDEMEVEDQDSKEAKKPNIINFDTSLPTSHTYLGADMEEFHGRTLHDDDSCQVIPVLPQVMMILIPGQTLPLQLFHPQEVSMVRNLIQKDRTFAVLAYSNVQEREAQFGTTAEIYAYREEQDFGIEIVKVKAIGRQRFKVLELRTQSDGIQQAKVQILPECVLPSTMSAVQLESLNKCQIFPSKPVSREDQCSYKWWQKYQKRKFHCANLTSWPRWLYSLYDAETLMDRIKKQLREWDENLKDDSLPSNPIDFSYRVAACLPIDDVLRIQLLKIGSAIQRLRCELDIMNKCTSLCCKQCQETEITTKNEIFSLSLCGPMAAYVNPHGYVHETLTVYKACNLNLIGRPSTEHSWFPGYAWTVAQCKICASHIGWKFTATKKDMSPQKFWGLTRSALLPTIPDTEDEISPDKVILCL
T3 sequence (Q16531 whole entry partner): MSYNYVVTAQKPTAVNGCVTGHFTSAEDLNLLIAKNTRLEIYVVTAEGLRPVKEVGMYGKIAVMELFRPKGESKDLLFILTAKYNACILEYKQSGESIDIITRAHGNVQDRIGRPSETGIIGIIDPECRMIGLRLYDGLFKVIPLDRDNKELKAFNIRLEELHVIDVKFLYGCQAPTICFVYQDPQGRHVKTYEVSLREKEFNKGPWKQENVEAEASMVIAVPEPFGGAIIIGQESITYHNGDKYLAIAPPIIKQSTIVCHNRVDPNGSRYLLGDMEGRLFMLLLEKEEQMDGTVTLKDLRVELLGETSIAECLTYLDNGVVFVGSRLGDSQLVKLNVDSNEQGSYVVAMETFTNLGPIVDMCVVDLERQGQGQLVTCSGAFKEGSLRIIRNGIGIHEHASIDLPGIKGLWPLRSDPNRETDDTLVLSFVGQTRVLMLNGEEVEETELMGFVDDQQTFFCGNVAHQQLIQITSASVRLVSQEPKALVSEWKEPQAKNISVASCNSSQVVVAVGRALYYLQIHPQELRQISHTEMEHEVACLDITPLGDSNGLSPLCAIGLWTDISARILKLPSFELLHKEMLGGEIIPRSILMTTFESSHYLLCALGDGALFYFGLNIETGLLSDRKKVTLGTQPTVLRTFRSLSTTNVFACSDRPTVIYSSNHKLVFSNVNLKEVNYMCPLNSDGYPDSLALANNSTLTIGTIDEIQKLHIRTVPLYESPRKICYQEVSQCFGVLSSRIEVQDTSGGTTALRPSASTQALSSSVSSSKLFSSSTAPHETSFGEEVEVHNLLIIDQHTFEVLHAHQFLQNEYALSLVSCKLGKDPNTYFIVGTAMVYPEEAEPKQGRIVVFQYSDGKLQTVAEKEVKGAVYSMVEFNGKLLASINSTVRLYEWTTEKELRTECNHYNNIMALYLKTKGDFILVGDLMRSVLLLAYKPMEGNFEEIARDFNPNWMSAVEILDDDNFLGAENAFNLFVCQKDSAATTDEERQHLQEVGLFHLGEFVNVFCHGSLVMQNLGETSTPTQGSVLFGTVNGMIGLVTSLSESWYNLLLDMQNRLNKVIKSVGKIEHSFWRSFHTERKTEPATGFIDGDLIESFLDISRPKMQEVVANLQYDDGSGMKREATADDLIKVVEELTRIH
T7 sequence (P15170 whole entry): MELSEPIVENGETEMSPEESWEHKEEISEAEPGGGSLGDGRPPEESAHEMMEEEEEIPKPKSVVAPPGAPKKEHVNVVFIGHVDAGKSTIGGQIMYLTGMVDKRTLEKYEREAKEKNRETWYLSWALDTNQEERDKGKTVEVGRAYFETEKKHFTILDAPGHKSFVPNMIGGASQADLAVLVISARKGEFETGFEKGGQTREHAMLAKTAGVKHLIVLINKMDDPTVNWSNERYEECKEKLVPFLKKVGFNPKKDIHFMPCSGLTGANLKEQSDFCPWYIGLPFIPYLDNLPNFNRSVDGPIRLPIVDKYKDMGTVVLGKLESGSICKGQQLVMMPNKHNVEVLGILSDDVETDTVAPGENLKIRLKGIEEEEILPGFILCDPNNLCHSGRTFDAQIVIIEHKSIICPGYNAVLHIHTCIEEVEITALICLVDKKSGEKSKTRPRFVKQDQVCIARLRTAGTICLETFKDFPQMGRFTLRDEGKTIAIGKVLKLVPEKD
T7 sequence (Q96SW2 whole entry): as the sequence (Q96SW2 whole entry) above
T7 sequence (Q16531 whole entry partner): as the sequence (Q16531 whole entry partner) above
T4 sequence (P48729 whole entry): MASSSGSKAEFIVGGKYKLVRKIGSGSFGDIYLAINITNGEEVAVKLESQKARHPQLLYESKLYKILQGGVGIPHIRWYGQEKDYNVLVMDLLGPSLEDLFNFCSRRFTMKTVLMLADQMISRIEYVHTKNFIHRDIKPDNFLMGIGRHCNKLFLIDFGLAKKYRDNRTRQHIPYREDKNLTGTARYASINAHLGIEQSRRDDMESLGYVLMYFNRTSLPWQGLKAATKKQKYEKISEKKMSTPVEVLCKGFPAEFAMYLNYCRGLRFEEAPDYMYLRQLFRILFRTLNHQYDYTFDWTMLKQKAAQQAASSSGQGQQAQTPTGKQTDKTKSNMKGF
T4 sequence (Q96SW2 whole entry): as the sequence (Q96SW2 whole entry) above
T4 sequence (Q16531 whole entry partner): as the sequence (Q16531 whole entry partner) above
T6 sequence (Q9UKS7 whole entry): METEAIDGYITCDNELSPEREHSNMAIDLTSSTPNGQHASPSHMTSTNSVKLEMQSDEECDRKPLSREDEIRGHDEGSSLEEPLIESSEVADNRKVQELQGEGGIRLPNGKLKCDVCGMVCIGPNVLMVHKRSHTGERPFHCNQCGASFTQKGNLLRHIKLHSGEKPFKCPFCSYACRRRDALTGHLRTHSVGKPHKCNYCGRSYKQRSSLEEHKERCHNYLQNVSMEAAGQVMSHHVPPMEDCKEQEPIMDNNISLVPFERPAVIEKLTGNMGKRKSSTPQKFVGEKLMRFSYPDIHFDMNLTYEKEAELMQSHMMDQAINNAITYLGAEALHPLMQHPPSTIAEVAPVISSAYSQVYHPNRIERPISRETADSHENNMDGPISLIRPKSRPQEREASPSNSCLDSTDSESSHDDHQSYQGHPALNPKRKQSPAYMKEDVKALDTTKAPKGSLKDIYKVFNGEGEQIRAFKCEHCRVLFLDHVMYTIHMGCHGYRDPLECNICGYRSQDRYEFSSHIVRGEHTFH
T6 sequence (Q96SW2 whole entry): as the sequence (Q96SW2 whole entry) above
T6 sequence (Q16531 whole entry partner): as the sequence (Q16531 whole entry partner) above
T8 sequence (Q9UKT9 whole entry): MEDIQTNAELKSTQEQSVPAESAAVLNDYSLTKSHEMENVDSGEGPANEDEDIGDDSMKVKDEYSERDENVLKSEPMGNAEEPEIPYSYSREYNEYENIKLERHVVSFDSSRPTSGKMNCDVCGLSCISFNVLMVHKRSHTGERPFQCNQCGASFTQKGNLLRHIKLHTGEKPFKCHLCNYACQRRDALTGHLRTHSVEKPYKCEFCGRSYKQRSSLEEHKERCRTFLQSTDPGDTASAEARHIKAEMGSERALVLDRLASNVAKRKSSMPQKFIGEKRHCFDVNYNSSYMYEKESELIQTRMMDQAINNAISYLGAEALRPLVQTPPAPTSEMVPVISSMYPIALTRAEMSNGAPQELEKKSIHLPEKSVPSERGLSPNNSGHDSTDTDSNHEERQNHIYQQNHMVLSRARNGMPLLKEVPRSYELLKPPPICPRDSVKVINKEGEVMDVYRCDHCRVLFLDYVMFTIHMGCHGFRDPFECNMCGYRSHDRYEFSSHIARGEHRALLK
T8 sequence (Q96SW2 whole entry): as the sequence (Q96SW2 whole entry) above
T8 sequence (Q16531 whole entry partner): as the sequence (Q16531 whole entry partner) above
T1 sequence (Q00534 whole entry): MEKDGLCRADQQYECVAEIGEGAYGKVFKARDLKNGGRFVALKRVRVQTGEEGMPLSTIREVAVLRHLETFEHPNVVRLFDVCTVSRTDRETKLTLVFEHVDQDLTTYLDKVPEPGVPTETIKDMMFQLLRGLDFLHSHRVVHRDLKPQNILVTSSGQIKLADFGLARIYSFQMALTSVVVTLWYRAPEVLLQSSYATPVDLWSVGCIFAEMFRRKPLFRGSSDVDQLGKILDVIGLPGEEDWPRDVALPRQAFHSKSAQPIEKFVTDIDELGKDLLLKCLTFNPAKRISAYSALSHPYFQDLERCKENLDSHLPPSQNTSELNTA

SMILES	IC50 [1, 14] [nM]	IC50 ([2]; Homo sapiens, MV4-11) [nM]	Degradation of substrate protein WEE1 (substrate protein remaining %) [7]	Degradation of substrate protein CKla (substrate protein remaining %) [8]	Degradation of substrate protein IKZF1 (substrate protein remaining %) [9]	IC50 [10] [nM]	Degradation of substrate protein IKZF2 (substrate protein remaining %) [11]	Degradation of substrate protein GSPT1 (substrate protein remaining %) [12]	Degradation of substrate protein IKZF3 (substrate protein remaining %) [13]	other results
CN1CCN(Cc2ccc(NC(=O)c3[nH]ncc3Nc3ncnc4[nH]ccc34)cc2)CC1 [FN-1501, reference compound]	–	–	–	–	–	–	–	–	–	IC50 ([1]; 72 hours): 100 to 500 nM; IC50 [2]: 1 to 10 nM; IC50 [3]: 100 to 500 nM
Cc1nc2c(F)cc(-c3nc(Nc4ccc(CN5CCN(Cc6ccc(N7CCC(=O)NC7=O)nc6)CC5)cn4)ncc3F)cc2n1C(C)C [GT-06668, 1-(5-((4-((6-((5-fluoro-4-(4-fluoro-1-isopropyl-2-methyl-1H-benzo[d]imidazol-6-yl)pyrimidin-2-yl)amino)pyridin-3-yl)methyl)piperazin-1-yl)methyl)pyridin-2-yl)dihydropyrimidine-2,4(1H,3H)-dione]	100 to 500	50 to 100	–	–	–	–	–	–	–	Degradation of substrate protein CDK6 (substrate protein remaining %) [4]: A (A is defined as 0% ≤ substrate protein remaining % ≤ 80%); Degradation of substrate protein CDK4 (substrate protein remaining %) [5]: A (A is defined as 0% ≤ substrate protein remaining % ≤ 80%); IC50 ([6]; read-out: Inhibitory activity (IC50) on tumor cell proliferation, MCF7): 50 to 100 nM
Cc1cc(S(=O)(=O)N2CCN(Cc3ccc(N4CCC(=O)NC4=O)cc3)CC2)ccc1Nc1ncc(Br)c(Nc2cccc(F)c2C(N)=O)n1 [GT-06831, 2-((5-bromo-2-((4-((4-(4-(2,4-dioxotetrahydropyrimidin-1(2H)-yl)benzyl)piperazin-1-yl)sulfonyl)-2-methylphenyl)amino)pyrimidin-4-yl)amino)-6-fluorobenzamide]	500 to 1000	100 to 500	–	–	–	–	–	–	–	–
Cc1cc(S(=O)(=O)N2CCN(Cc3cccc(N4CCC(=O)NC4=O)c3)CC2)ccc1Nc1ncc(Br)c(Nc2cccc(F)c2C(N)=O)n1 [GT-06832, 2-((5-bromo-2-((4-((4-(3-(2,4-dioxotetrahydropyrimidin-1(2H)-yl)benzyl)piperazin-1-yl)sulfonyl)-2-methylphenyl)amino)pyrimidin-4-yl)amino)-6-fluorobenzamide]	500 to 1000	100 to 500	–	–	–	–	–	–	–	–
Cc1cc(S(=O)(=O)N2CCN(Cc3ccc(N4CCC(=O)NC4=O)nc3)CC2)ccc1Nc1ncc(Br)c(Nc2cccc(F)c2C(N)=O)n1 [GT-06834, 2-((5-bromo-2-((4-((4-((6-(2,4-dioxotetrahydropyrimidin-1(2H)-yl)pyridin-3-yl)methyl)piperazin-1-yl)sulfonyl)-2-methylphenyl)amino)pyrimidin-4-yl)amino)-6-fluorobenzamide]	500 to 1000	100 to 500	–	–	–	–	–	–	–	IC50 ([3]; Homo sapiens, CCRF-CEM): 500 to 1000 nM
Cc1ccsc1C(=O)n1nc(Nc2ccc(S(=O)(=O)N3CCN(Cc4ccc(N5CCC(=O)NC5=O)cc4)CC3)cc2)nc1N [GT-06856, 1-(4-((4-((4-((5-amino-1-(3-methylthiophene-2-carbonyl)-1H-1,2,4-triazol-3-yl)amino)phenyl)sulfonyl)piperazin-1-yl)methyl)phenyl)dihydropyrimidine-2,4(1H,3H)-dione]	500 to 1000	100 to 500	–	–	–	–	–	–	–	IC50 ([3]; Homo sapiens, CCRF-CEM): 500 to 1000 nM
Cc1ccsc1C(=O)n1nc(Nc2ccc(S(=O)(=O)N3CCN(Cc4ccc(N5CCC(=O)NC5=O)nc4)CC3)cc2)nc1N [GT-06861, 1-(5-((4-((4-((5-amino-1-(3-methylthiophene-2-carbonyl)-1H-1,2,4-triazol-3-yl)amino)phenyl)sulfonyl)piperazin-1-yl)methyl)pyridin-2-yl)dihydropyrimidine-2,4(1H,3H)-dione]	500 to 1000	100 to 500	–	–	–	–	–	–	–	IC50 ([3]; Homo sapiens, CCRF-CEM): 500 to 1000 nM
Cc1ccsc1C(=O)n1nc(Nc2ccc(S(=O)(=O)N3CCN(Cc4cccc(NC5CCC(=O)NC5=O)c4)CC3)cc2)nc1N (stereo not drawn) [GT-06862, 3-((3-((4-((4-((5-amino-1-(3-methylthiophene-2-carbonyl)-1H-1,2,4-triazol-3-yl)amino)phenyl)sulfonyl)piperazin-1-yl)methyl)phenyl)amino)piperidine-2,6-dione]	100 to 500	100 to 500	–	–	–	–	–	–	–	–
O=C1CCN(c2cc(CCl)ccn2)C(=O)N1 [GT-07078, 1-(4-(Chloromethyl)pyridin-2-yl)dihydropyrimidine-2,4(1H,3H)-dione]	–	–	B (B is defined as substrate protein remaining % > 80%)	B (B is defined as substrate protein remaining % > 80%)	B (B is defined as substrate protein remaining % > 80%)	1000 to 5000	B (B is defined as substrate protein remaining % > 80%)	A (A is defined as 0% ≤ substrate protein remaining % ≤ 80%)	B (B is defined as substrate protein remaining % > 80%)	IC50 [6, 15]: 1000 to 5000 nM
O=C1CCN(c2cc(CCl)c(F)cn2)C(=O)N1 [GT-07199, 1-(4-(Chloromethyl)-5-fluoropyridin-2-yl)dihydropyrimidine-2,4(1H,3H)-dione]	–	–	B (B is defined as substrate protein remaining % > 80%)	A (A is defined as 0% ≤ substrate protein remaining % ≤ 80%)	B (B is defined as substrate protein remaining % > 80%)	1000 to 5000	A (A is defined as 0% ≤ substrate protein remaining % ≤ 80%)	A (A is defined as 0% ≤ substrate protein remaining % ≤ 80%)	A (A is defined as 0% ≤ substrate protein remaining % ≤ 80%)	IC50 [6, 15]: 1000 to 5000 nM
O=C1CCN(c2cnc(F)c(CCl)c2)C(=O)N1 [GT-07633, 1-(5-(Chloromethyl)-6-fluoropyridin-3-yl)dihydropyrimidine-2,4(1H,3H)-dione]	–	–	A (A is defined as 0% ≤ substrate protein remaining % ≤ 80%)	A (A is defined as 0% ≤ substrate protein remaining % ≤ 80%)	B (B is defined as substrate protein remaining % > 80%)	1000 to 5000	A (A is defined as 0% ≤ substrate protein remaining % ≤ 80%)	B (B is defined as substrate protein remaining % > 80%)	B (B is defined as substrate protein remaining % > 80%)	IC50 [6, 15]: 1000 to 5000 nM
O=C1CCN(c2cnc(CCl)cn2)C(=O)N1 [GT-07635, 1-(5-(Chloromethyl)pyrazin-2-yl)dihydropyrimidine-2,4(1H,3H)-dione]	–	–	A (A is defined as 0% ≤ substrate protein remaining % ≤ 80%)	A (A is defined as 0% ≤ substrate protein remaining % ≤ 80%)	A (A is defined as 0% ≤ substrate protein remaining % ≤ 80%)	1000 to 5000	A (A is defined as 0% ≤ substrate protein remaining % ≤ 80%)	B (B is defined as substrate protein remaining % > 80%)	A (A is defined as 0% ≤ substrate protein remaining % ≤ 80%)	–
